Results reported in patent US12516055B2, “Protein kinase inhibitors and uses thereof for the treatment of diseases and conditions” (University of Houston System, priority 2019, dated 2026).
Like-named read-outs stand apart in the source and are kept apart here. Marks after values point to notes of the source that are not given here.

Key:
[1] = system: Hela-RIPK3 cells; conditions: Mandal et al. 2014, one cell under both toxicity columns; cited from earlier work
[2] = system: LPS/IDN-treated murine RAW264.7 macrophages; assay: Protection from necroptosis in LPS/IDN-treated RAW264.7 macrophages (CellTiter-Glo); type: cell-based
Protocol: (§2) IC50/LD50 values were determined for inhibition of recombinant RIPK3, inhibition of necroptosis in LPS/IDN-treated murine RAW264.7 macrophages and TNF/IDN-treated human Hela cells expressing RIPK3, RIPK3 binding by the inhibitors in live cells (NanoBRET assay), and induction of RIPK3-dependent apoptosis (i.e., on-target toxicity). Assays were performed using ADPGlo (kinase assay), CellTiter-Glo (viability), and NanoBRET (target engagement) assays.
(§3) After incubation with drugs, 15 μL of CellTiter-Glo reagent is added to the wells and incubated for 10 min Luminescence signals are determined using appropriate luminescence plate-reader (typical integration time 0.3 sec).

[3] = system: TNF/IDN-treated human Hela cells expressing RIPK3; assay: Protection from necroptosis in TNF/IDN-treated Hela-RIPK3 cells (CellTiter-Glo); type: cell-based
Protocol: as §2, §3

[4] = system: RIPK3 and MLKL phosphorylation; assay: RIPK3 and MLKL phosphorylation in RAW264.7 macrophages (Western blot, FIG. 31); type: cell-based; conditions: LPS 10 ng/ml + IDN6556 20 μM
Protocol: Necroptosis was induced by the combination of LPS (10 ng/ml) and pan-caspase inhibitor IDN6556 (20 μM). Note that LPS is a TLR4 ligand that, like TNF, can activate RIPK3 (and necroptosis) in the presence of a caspase inhibitor. The asterisk indicates a non-specific band sometimes see in pMLKL immunoblots. Samples are subjected to SDS-PAGE gele electrophoresis and Western blotting using RIPK3, phospho-Thr231/Ser232-RIPK3, MLKL and phospho-Ser345-MLKL antibodies (Abcam).

[5] = system: NOD2 cellular signaling; assay: NOD2 signaling assay in HEK-Blue cells (NFkB-SEAP reporter); type: cell-based; conditions: Homo sapiens, L18-MDP stimulated, read-out: EC50 HEK Blue (μM) RIPK2
Protocol: HEK-Blue cells expressing human NOD2 and NFkB-SAEP reporter (Invivogen) are seeded into 96 well clear plates at 7.5×10^3 cells per well in 100 μL of DMEM media supplemented with 10% FBS and 1% antibiotic-antimycotic mix. Cells are allowed to attach for 48 h in 5% CO2 tissue culture incubator at 37° C. On the morning of the experiment, media in the wells is replaced with 100 μL of HEK-Blue detection media (Invivogen). Cells are treated with the inhibitors, diluted in DMSO (0.5 μL per well) for […] in 5% CO2 tissue culture incubator at 37° C. After that, cells are stimulated by the addition of 1 ng/well L18-MDP (Invivogen). Cells are incubated in 5% CO2 tissue culture incubator at 37° C. for 8 h and absorbance, corresponding to the SEAP in the media, is determined in Wallac3V plate reader (Perkin Elmer). Inhibition, %=(1−((sample signal-unstimulated and DMSO treated cells)/(L18−MDP stimulated and DMSO treated cells−unstimulated and DMSO treated cells)))*100.
(§1) Prepared compounds were evaluated for their ability to inhibit RIPK2 and ALK2 enzyme activities and NOD2 cellular signaling using the methods described above.

[6] = target: T1, human ALK2 (Homo sapiens, UniProt Q04771); assay: ALK2 enzyme assay (33P-casein); type: biochemical; conditions: 10 μM ATP
T1 sequence (Q04771 21-509): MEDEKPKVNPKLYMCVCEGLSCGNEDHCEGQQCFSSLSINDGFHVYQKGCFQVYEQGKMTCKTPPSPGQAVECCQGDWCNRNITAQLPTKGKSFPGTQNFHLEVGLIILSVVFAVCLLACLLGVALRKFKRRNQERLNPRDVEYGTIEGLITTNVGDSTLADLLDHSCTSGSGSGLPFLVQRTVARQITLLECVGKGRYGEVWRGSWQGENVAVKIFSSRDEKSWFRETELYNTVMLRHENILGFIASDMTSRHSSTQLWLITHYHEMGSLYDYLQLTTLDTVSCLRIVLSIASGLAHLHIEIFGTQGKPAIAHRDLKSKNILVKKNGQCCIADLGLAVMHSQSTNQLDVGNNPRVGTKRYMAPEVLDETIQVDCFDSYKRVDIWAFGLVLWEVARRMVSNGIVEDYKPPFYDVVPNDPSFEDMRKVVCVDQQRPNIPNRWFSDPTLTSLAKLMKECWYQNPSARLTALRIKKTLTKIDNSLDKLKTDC
Protocol: Enzyme inhibitory activity was evaluated in a standard kinase enzyme assay by incubating human ALK2 with the protein substrate casein (1 mg/mL) and γ-^33ATP (10 μM) in the presence of various concentrations of test compounds (10 nM 100 μM). After 30 min the amount of ^33P-casein was determined.
as §1

[7] = system: RAW264.7 cells
Protocol: as §2
(§4) For ADP-Glo assays, recombinant RIPK3 protein (20 ng per reaction) is diluted in the reaction buffer consisting of 50 mM HEPES, pH 7.5, 50 mM NaCl, 30 mM MgCl2, 1 mM DTT, 0.05% bovine serum albumin (BSA), 0.02% CHAPS. Diluted protein is added to low volume white 384 well plates (2 μL/well). […] Reactions are initiated by the addition of 2 μL of 100 μM ATP in the reaction buffer. Plates are sealed with plastic coverslips and incubated at room temperature for 4 h. Reactions are stopped by the addition of 5 μL of ADP-Glo reagent (Promega) and ADP generation reaction is performed for 40 mM at room temperature Luminescence signal is generated by the addition of 10 μL of Kinase detection reagent (Promega) for 30 mM at room temperature Luminescence signals are determined using appropriate luminescence plate-reader (typical integration time 0.3-1 sec). To calculate percent inhibition, average background signal is subtracted from test well and maximal signal wells. Inhibition, %=(1−(test signal/maximal signal))*100. The percent inhibition at a specified concentration is determined or IC50 values are calculated based on a dose range of inhibitor concentrations using non-linear regression in GraphPad Prism software. […] After incubation with drugs, 15 μL of CellTiter-Glo reagent is added to the wells and incubated for 10 min Luminescence signals are determined using appropriate luminescence plate-reader (typical integration time 0.3 sec). To calculate percent viability, Viability, %=(1−(test signal/maximal viability in the untreated wells))*100.

[8] = target: T2, RIPK3 (Homo sapiens, UniProt Q9Y572); assay: Inhibition of recombinant RIPK3 (ADP-Glo kinase assay); type: biochemical; conditions: recombinant RIPK3, ADPGlo; read-out: Inhibition of RIPK3, RIPK3 protein IC50
T2 sequence (Q9Y572 whole entry, species assumed): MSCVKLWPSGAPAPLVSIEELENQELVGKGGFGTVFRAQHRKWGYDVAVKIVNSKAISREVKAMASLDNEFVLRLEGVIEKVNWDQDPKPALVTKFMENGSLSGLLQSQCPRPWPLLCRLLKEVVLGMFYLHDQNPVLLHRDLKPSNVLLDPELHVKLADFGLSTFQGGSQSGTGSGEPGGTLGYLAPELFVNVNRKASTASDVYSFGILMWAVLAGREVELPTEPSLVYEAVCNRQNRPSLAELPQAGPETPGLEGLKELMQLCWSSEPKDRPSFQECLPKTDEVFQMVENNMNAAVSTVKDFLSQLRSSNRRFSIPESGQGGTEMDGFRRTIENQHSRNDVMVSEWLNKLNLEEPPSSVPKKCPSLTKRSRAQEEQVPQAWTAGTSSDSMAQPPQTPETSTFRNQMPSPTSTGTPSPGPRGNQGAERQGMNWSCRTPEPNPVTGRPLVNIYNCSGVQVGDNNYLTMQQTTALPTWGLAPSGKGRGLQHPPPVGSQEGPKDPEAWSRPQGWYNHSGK
Protocol: as §2, §4

[9] = target: T2, RIPK3; assay: RIPK3 binding in live HEK cells (NanoBRET target engagement); set-up: expressed in transfected cells; host or cells: HEK cells
Protocol: as §2

[10] = system: Hela-RIPK3 cells
Protocol: as §2
For ADP-Glo assays, recombinant RIPK3 protein (20 ng per reaction) is diluted in the reaction buffer consisting of 50 mM HEPES, pH 7.5, 50 mM NaCl, 30 mM MgCl2, 1 mM DTT, 0.05% bovine serum albumin (BSA), 0.02% CHAPS. Diluted protein is added to low volume white 384 well plates (2 μL/well). […] Reactions are stopped by the addition of 5 μL of ADP-Glo reagent (Promega) and ADP generation reaction is performed for 40 mM at room temperature Luminescence signal is generated by the addition of 10 μL of Kinase detection reagent (Promega) for 30 mM at room temperature Luminescence signals are determined using appropriate luminescence plate-reader (typical integration time 0.3-1 sec). […] The percent inhibition at a specified concentration is determined or IC50 values are calculated based on a dose range of inhibitor concentrations using non-linear regression in GraphPad Prism software. […]

[11] = Mus musculus, LPS/IDN-treated RAW264.7 cells, read-out: Protection from necroptosis, RAW264.7 cells IC50

SMILES	Toxicity, RAW264.7 cells LD50 [7] [µM]	IC50 [8] [µM]	IC50 [9] [µM]	also measured
CC(C)S(=O)(=O)c1ccc2nccc(Nc3ccc4scnc4c3)c2c1 [GSK′872, reference compound]				Toxicity LD50 (published value) [1]: ~10* μM; IC50 ([2]; LPS/IDN-treated RAW264.7 cells, read-out: Protection from necroptosis, RAW264.7 cells IC50): 1.29 µM; IC50 [3]: 3.21 µM; Block of RIPK3 and MLKL phosphorylation [4]: block RIPK3 and MLKL phosphorylation
Cn1c(=O)c(-c2ccccc2Cl)cc2cnc(Nc3cccc(N4CCS(=O)(=O)CC4)c3)cc21 [UH15-28, 3-(2-chlorophenyl)-7-((3-(1,1-dioxidothiomorpholino)phenyl)amino)-1-methyl-1,6-naphthyridin-2(1H)-one]				EC50 [5]: 0.07 µM
CN1CCN(c2cccc(Nc3cc4c(cn3)cc(-c3ccccc3Cl)c(=O)n4C)c2)CC1 [UH15-37, 3-(2-chlorophenyl)-1-methyl-7-((3-(4-methylpiperazin-1-yl)phenyl)amino)-1,6-naphthyridin-2(1H)-one]				EC50 [5]: 0.05 µM; IC50 [6]: 32300 nM
CCN(CC)CCOc1ccc(Nc2ncc3cc(-c4ccccc4)c(=O)n(CC)c3n2)cc1 [compound 4]	5.2	0.3		IC50 ([2]; Mus musculus, RAW264.7, read-out: Protection from necroptosis, RAW264.7 cells IC50): 0.18 µM
CCN(CC)CCOc1ccc(Nc2ncc3cc(-c4c(Cl)cccc4Cl)c(=O)n(CCOC)c3n2)cc1 [compound 6]		0.02	0.02	
CCN(CC)CCOc1ccc(Nc2ncc3cc(-c4c(Cl)cccc4Cl)c(=O)n(CC(C)C)c3n2)cc1 [compound 10]		0.08		
Cc1ccc(-c2cc3cnc(Nc4cccc(S(C)(=O)=O)c4)nc3n(C)c2=O)c(Cl)c1 [compound 20]		0.28	0.95	
CN1CCN(c2cccc(Nc3cc4c(cn3)cc(-c3ccccc3Cl)c(=O)n4C)c2)CC1 [compound 37]	>10	0.05	0.08	IC50 [2, 11]: 0.25 µM; IC50 ([3]; Homo sapiens): 0.06 µM; Toxicity, Hela-RIPK3 cells LD50 [10]: >10 µM
CN1CCN(c2cccc(Nc3cc4c(cn3)cc(-c3cccc(O)c3)c(=O)n4C)c2)CC1 [compound 38]	>10	0.01	0.02	IC50 [2, 11]: 0.02 µM
